Measurements published in patent US20250020668A1, “CANCER LESION TISSUE EVALUATION FOR OPTIMIZING EFFECT OF BORON NEUTRON CAPTURE THERAPY” (3-D Matrix, Ltd., priority 2018, published 2025).

Test system: PABPc1
Assay: Immunoprecipitation with anti-BSH antibody from U251 cell crushing solution
Type: binding
Settings: 50 μM, FIG. 2 and FIG. 3 combined
Protocol: To a cell crushing solution of a malignant brain tumor cell line U251, simple BSH (referred to BSH) (50 μM) or BSH-11R (50 μM) was added, and proteins which bind to BSH and BSH-11R were explored by immunoprecipitation with an anti-BSH antibody (10 μg).
To examine whether the binding of BSH-11R to the translation-related factors is a direct or indirect binding, a subline of malignant brain tumor cell line U251 that underwent knockdown of the translation-related factors with shRNA lentivirus was prepared. To the cell crushing solutions, BSH-11R (50 μM) was added, and translation-related factors that bind to BSH-11R were analyzed with an anti-BSH antibody (10 μg).

## mercaptoundecahydrodecaborate [BSH]
  binding to PABPc1: binds to BSH in an RNA-dependent manner
